Data set [1] has as its system SARS-CoV. Briefly: microbe, parasite or virus in culture. As to conditions: Severe acute respiratory syndrome-related coronavirus, Frankfurt1, Vero.
The subject of data set [2] is Vero. Conditions: chlorocebus sabaeus.
The test system of data set [3] is SARS-CoV. The class given is functional, organism-based. Conditions: Severe acute respiratory syndrome-related coronavirus; Frankfurt1; Vero; 20 uM.
A short description of data set [4]: in vitro. As to conditions: chlorocebus sabaeus, Vero E6 cells.
Data set [5] deals with SARS-CoV. Type of data set: functional, organism-based. As to conditions: Severe acute respiratory syndrome-related coronavirus; Frankfurt1; Vero; 50 to 70 uM.

Calls of active or inactive are those of the source. The rule behind the calls is not given here.

By IC50 is commonly meant the midpoint of a concentration-inhibition curve. Read a low IC50 as greater potency in that assay.

In data set [1], `OCC(CO)CCn1cnc2c(Cl)ncnc21` came in with an IC50 greater than 300 µM.

In data set [1], `CSc1ncnc2c1ncn2[C@@H]1O[C@H](CO)[C@@H](O)[C@H]1O` had an IC50 greater than 300 µM.

As for `OC[C@H]1O[C@@H](n2cnc3c(Cl)ncnc32)C[C@@H]1O`, the IC50 in data set [1] was greater than 300 µM.

Regarding `Nc1nc(Cl)c2ncn([C@@H]3O[C@H](CO)[C@@H](O)[C@H]3O)c2n1`, the IC50 in data set [1] was greater than 300 µM.

In data set [2], `OC[C@H]1O[C@@H](n2cnc3c(Cl)ncnc32)[C@H](O)[C@@H]1O` came in with a CC50 of 279 µM. Besides, in data set [3], the result was Active.

On to `OC[C@@H]1C[C@@H](O)[C@H](n2cnc3c(Cl)ncnc32)O1`, for which the IC50 in data set [1] was greater than 300 µM.

On to `OCC(CCn1cnc2c(Cl)ncnc21)COCc1ccccc1` (stereo not given), for which the IC50 in data set [1] was greater than 300 µM.

`COc1ncnc2c1ncn2[C@@H]1O[C@H](CO)[C@@H](O)[C@H]1O` gave an IC50 in data set [1] greater than 300 µM.

Regarding `OCC1C(COCc2ccccc2)CC1n1cnc2c(Cl)ncnc21` (stereo not given), the CC50 in data set [4] worked out at 78 µM. This compound showed an IC50 in data set [1] of 14.5 µM. Further, in data set [5], the result was Active.

Take `OCC1CC(n2cnc3c(Cl)ncnc32)C1CO` (stereo not given): the IC50 in data set [1] is greater than 300 µM.

In the case of `O[C@@H]1[C@H](O)[C@@H](COCc2ccccc2)O[C@H]1n1cnc2c(Cl)ncnc21`, the CC50 in data set [4] turned out to be 174 µM. Further, in data set [1], the midpoint of inhibition, the IC50, lay at 108 µM. The result in data set [5] was Active.

`NC(=O)c1ncn([C@@H]2O[C@H](CO)[C@@H](O)[C@H]2O)n1` [RIBAVIRIN] yielded a CC50 in data set [4] greater than 850 µM. The same compound displayed an IC50 in data set [1] of 82 µM.

With `NC(=O)c1ncn([C@@H]2O[C@H](CO)[C@@H](O)[C@H]2O)c1O` [MIZORIBINE], in data set [4], the CC50 was greater than 700 µM. The compound further yielded an IC50 in data set [1] of 13.5 µM.

The values above are taken from ChEMBL document CHEMBL1144631, “Synthesis and biological evaluation of nucleoside analogues having 6-chloropurine as anti-SARS-CoV agents” (Bioorg Med Chem Lett, 2007).
